The source made the active and inactive calls.
Experiments:
[1] = microbe, parasite or virus in culture; type: functional; settings: Mycobacterium tuberculosis
Bcl-2-related protein A1 = Bcl-2-related protein A1 (Mus musculus, UniProt Q07440); type: functional;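 note: confirmatory dose–response counterscreen on Bfl-1, used to check hits from a UBC13 polyubiquitin inhibitor campaign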
[2] = target: T1, Ubiquitin-conjugating enzyme E2 N (Homo sapiens, UniProt P61088); type: functional;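 note: Dose-response confirmation in a TR-FRET assay detecting UBC13-driven polyubiquitin chain formation, inhibition measured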
T1 sequence (P61088 whole entry): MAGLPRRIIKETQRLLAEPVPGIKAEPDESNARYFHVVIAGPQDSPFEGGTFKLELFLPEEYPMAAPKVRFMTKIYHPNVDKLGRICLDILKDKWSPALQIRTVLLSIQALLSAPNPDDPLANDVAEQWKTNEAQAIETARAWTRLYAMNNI

[3] = target: Heat shock protein HSP 90-alpha (Homo sapiens, UniProt P07900); type: functional, organism-based
[4] = nonselective inhibitors of cellular cAMP signaling, dose response, counter-screen for MC4R biased antagonist project, cell-based, TR-FRET cAMP detection (AID 602305); type: functional;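 note: U2OS cells stimulated with forskolin near its EC80 as the cAMP inducer; potency is for inhibition of forskolin-stimulated cAMP signaling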
[5] = target: Protein kinase C theta type (Homo sapiens, UniProt Q04759); experiment: Navigating the Kinome. Panel member name: PRKCQ; type: functional
[6] = target: Serine/threonine-protein kinase pim-1 (Homo sapiens, UniProt P11309); type: functional
[7] = target: Dual specificity tyrosine-phosphorylation-regulated kinase 1B (Homo sapiens, UniProt Q9Y463); experiment: Navigating the Kinome. Panel member name: DYRK1B; type: functional
[8] = target: cGMP-dependent protein kinase 1 (Homo sapiens, UniProt Q13976); type: functional;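 note: value from a kinome panel screen with PRKG1 as the panel member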
[9] = target: Phosphorylase b kinase gamma catalytic chain, liver/testis isoform (Homo sapiens, UniProt P15735); type: functional;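 note: PHKG2 measured as one member of a kinome-wide kinase panel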
[10] = target: Calcium/calmodulin-dependent protein kinase type II subunit gamma (Homo sapiens, UniProt Q13555); type: functional
[11] = target: Tyrosine-protein kinase SYK (Homo sapiens, UniProt P43405); type: functional
[12] = target: Serine/threonine-protein kinase 17A (Homo sapiens, UniProt Q9UEE5); type: functional
[13] = target: Serine/threonine-protein kinase Chk2 (Homo sapiens, UniProt O96017); type: functional;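 note: CHEK2 entry within a kinome-wide screening panel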
[14] = target: MAP kinase-activated protein kinase 5 (Homo sapiens, UniProt Q8IW41); type: functional;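 note: measured as one member of a kinome panel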
[15] = target: Tyrosine-protein kinase ITK/TSK (Homo sapiens, UniProt Q08881); type: functional;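 note: affinity for ITK measured as one member of a broad kinase panel profiling binding across the kinome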
[16] = target: Testis-specific serine/threonine-protein kinase 1 (Homo sapiens, UniProt Q9BXA7); type: functional
[17] = target: Homeodomain-interacting protein kinase 2 (Homo sapiens, UniProt Q9H2X6); type: functional;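 note: measured within a kinome-wide kinase profiling panel, HIPK2 being one panel member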
[18] = target: Non-receptor tyrosine-protein kinase TYK2 (Homo sapiens, UniProt P29597); type: functional
Ephrin type-A receptor 2 = Ephrin type-A receptor 2 (Homo sapiens, UniProt P29317); type: functional;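 note: EPHA2 tested as one member of a kinome-wide kinase panel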
[19] = target: Mitogen-activated protein kinase 1 (Homo sapiens, UniProt P28482); type: functional
Misshapen-like kinase 1 = Misshapen-like kinase 1 (Homo sapiens, UniProt Q8N4C8); type: functional;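 note: kinome panel screen with MINK as the panel member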
[20] = target: Interleukin-1 receptor-associated kinase 4 (Homo sapiens, UniProt Q9NWZ3); type: functional
[21] = target: Tyrosine-protein kinase Fer (Homo sapiens, UniProt P16591); type: functional;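 note: FER tested as one member of a kinome panel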
[22] = target: Serine/threonine-protein kinase Nek2 (Homo sapiens, UniProt P51955); type: functional
[23] = target: Receptor tyrosine-protein kinase erbB-4 (Homo sapiens, UniProt Q15303); type: functional;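 note: ERBB4 member of a kinome-wide kinase profiling panel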
[24] = target: Lymphokine-activated killer T-cell-originated protein kinase (Homo sapiens, UniProt Q96KB5); type: functional;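 note: value comes from a kinase panel screen in which TOPK was one of the panel members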
[25] = target: Serine/threonine-protein kinase BRSK1 (Homo sapiens, UniProt Q8TDC3); type: functional;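 note: measured within a kinome-wide kinase panel, with the target listed as KIAA1811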
H4 = experiment: Luminescence Cell-Based Dose Response HTS to Identify Activators of 5'UTR Stem-Loop Driven Prion Protein mRNA Translation in H4 Neuroglioblastoma Cells. [Related pubchem assays: 1829 (Project Summary), 1814 (Primary HTS)]; type: functional; settings: Homo sapiens
[26] = growth suppression of beta-catenin-knockout colon cells, dose response, cell-based, HCT116, human colon tumor (AID 1045); type: functional;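 note: HCT116 colon tumor cells with beta catenin knocked out; cells exposed to compound for 60 hours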
Hexokinase HKDC1 = target: T2, Hexokinase HKDC1 (Homo sapiens, UniProt Q2TB90); experiment: HKDC1 hexokinase inhibitors, dose response, biochemical, W721R variant (AID 504729); type: functional
T2 sequence (Q2TB90 whole entry): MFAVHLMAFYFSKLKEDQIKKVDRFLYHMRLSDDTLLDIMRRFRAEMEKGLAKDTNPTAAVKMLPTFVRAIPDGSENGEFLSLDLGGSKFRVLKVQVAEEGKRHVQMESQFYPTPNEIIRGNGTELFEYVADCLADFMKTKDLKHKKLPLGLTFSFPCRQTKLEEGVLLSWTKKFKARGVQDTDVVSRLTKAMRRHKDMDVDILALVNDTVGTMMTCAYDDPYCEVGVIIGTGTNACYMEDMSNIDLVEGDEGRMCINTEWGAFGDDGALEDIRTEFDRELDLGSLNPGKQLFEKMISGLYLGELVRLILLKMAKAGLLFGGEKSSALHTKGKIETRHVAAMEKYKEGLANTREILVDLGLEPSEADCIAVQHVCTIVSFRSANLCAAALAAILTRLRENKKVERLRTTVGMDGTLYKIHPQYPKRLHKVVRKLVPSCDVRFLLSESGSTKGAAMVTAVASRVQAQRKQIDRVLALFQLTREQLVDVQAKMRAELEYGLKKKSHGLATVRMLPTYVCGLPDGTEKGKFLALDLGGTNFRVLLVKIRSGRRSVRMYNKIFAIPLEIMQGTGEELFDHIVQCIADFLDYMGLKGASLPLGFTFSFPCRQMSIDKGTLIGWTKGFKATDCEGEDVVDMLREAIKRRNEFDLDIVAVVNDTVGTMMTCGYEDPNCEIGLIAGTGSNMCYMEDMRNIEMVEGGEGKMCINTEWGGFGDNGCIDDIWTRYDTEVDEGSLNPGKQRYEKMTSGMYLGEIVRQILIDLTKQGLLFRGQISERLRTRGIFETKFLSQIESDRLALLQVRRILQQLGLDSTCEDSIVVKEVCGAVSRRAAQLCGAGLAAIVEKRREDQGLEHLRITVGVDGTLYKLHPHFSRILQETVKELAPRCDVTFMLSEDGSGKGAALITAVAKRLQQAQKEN

Sequence of Serine/threonine-protein kinase BRSK1 (Q8TDC3 whole entry): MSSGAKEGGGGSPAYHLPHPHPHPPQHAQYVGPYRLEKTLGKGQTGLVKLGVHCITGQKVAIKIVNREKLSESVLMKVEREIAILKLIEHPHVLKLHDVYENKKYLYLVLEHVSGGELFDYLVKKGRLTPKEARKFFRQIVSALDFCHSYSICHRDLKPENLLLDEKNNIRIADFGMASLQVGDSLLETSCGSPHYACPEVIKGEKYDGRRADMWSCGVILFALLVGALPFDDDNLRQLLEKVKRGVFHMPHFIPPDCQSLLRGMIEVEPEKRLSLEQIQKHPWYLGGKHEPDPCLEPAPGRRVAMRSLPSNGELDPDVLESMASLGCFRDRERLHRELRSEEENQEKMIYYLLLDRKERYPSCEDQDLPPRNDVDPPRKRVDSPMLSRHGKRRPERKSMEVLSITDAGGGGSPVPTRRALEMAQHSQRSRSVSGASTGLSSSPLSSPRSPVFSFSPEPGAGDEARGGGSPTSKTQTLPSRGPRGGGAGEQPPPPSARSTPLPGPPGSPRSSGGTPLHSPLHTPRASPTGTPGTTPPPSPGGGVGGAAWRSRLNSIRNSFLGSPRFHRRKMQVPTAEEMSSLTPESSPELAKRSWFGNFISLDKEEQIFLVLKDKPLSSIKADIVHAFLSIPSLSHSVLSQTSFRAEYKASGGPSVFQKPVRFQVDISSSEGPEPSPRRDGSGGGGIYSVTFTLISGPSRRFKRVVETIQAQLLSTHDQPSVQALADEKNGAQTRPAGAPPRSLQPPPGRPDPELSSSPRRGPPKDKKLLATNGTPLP
Sequence of cGMP-dependent protein kinase 1 (Q13976 whole entry, canonical isoform): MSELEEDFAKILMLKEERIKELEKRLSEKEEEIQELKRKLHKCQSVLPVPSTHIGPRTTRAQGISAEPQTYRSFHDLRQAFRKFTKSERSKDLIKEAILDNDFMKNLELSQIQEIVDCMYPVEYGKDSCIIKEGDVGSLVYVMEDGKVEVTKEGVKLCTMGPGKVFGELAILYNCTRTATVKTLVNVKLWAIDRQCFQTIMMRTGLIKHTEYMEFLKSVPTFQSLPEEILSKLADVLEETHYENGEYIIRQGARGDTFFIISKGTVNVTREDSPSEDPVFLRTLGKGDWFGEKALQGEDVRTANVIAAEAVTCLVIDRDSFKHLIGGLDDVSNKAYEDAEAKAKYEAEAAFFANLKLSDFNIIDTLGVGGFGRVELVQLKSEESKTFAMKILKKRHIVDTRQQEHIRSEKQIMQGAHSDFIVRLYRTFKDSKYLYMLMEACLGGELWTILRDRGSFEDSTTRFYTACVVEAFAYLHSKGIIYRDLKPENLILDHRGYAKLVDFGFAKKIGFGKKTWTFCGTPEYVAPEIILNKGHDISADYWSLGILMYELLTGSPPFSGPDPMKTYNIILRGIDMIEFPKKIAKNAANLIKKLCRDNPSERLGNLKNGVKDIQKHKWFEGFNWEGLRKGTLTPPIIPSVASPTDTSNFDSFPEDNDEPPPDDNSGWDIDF
Sequence of Calcium/calmodulin-dependent protein kinase type II subunit gamma (Q13555 whole entry): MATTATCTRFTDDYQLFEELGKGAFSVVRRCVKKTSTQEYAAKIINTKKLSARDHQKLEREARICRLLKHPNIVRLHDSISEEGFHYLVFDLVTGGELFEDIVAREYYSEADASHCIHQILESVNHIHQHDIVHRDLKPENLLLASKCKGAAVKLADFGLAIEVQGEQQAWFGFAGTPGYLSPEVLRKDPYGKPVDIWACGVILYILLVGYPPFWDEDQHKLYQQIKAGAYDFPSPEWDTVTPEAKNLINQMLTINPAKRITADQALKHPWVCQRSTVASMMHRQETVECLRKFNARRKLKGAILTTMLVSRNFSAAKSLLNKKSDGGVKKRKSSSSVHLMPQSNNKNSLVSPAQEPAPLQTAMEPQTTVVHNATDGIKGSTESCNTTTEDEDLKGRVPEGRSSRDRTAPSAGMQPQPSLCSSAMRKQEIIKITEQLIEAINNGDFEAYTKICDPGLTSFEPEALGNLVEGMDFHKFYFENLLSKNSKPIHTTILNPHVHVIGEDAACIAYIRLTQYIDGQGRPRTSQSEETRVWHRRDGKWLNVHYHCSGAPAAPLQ
Sequence of Testis-specific serine/threonine-protein kinase 1 (Q9BXA7 whole entry): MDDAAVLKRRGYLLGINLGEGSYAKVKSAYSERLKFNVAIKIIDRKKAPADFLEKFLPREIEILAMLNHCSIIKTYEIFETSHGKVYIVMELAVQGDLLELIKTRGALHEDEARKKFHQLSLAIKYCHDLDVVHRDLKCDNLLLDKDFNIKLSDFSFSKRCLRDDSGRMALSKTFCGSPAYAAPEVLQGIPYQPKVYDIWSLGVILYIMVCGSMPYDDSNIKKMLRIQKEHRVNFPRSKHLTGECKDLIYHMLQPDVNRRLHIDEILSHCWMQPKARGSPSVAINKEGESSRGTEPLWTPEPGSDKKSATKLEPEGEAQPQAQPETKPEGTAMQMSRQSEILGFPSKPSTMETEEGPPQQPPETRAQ
Sequence of Bcl-2-related protein A1 (Q07440 whole entry): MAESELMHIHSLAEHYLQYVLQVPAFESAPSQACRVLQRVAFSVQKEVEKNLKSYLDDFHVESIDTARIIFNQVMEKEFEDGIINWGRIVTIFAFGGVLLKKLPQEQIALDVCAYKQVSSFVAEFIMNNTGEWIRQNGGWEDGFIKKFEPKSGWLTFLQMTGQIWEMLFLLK
Sequence of Serine/threonine-protein kinase 17A (Q9UEE5 whole entry): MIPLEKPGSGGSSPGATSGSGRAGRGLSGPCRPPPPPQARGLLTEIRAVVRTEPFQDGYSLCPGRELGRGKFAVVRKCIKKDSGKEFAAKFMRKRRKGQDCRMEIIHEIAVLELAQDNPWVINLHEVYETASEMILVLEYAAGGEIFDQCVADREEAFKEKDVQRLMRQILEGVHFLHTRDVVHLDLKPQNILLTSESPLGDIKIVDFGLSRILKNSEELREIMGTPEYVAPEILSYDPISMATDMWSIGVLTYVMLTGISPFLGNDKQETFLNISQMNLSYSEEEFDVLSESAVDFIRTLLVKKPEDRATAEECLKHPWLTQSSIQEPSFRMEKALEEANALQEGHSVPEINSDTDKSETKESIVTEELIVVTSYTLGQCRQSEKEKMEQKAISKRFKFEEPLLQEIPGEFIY
Sequence of MAP kinase-activated protein kinase 5 (Q8IW41 whole entry): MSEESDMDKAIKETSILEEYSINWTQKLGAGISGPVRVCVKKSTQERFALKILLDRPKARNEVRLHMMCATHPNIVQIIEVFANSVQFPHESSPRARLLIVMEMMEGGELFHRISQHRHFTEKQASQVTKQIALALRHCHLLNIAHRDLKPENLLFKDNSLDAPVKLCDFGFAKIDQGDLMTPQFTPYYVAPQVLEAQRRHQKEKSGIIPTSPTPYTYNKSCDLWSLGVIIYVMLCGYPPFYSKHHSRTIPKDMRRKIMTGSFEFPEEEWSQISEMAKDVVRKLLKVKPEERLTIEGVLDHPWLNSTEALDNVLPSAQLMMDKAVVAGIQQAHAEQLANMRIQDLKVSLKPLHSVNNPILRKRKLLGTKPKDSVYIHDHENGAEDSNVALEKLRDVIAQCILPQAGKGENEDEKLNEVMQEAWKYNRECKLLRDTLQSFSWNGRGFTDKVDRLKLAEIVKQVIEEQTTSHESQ
Sequence of Dual specificity tyrosine-phosphorylation-regulated kinase 1B (Q9Y463 whole entry): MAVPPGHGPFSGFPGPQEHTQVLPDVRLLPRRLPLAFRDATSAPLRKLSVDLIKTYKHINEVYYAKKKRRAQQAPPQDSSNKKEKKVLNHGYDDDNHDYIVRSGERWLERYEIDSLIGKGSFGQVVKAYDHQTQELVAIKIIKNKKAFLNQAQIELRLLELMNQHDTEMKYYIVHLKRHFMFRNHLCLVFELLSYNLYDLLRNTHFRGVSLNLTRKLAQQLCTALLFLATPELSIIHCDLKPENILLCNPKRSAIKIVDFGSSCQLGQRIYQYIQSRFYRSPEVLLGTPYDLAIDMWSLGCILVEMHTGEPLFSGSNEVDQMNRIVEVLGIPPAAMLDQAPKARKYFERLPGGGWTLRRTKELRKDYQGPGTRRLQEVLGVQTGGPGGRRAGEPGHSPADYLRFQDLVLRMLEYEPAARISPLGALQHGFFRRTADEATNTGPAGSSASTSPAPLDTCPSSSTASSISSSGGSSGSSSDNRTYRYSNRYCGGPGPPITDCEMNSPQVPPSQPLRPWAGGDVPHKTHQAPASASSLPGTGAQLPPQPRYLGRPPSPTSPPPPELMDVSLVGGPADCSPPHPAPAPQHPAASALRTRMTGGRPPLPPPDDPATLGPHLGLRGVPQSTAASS
Sequence of Phosphorylase b kinase gamma catalytic chain, liver/testis isoform (P15735 whole entry, canonical isoform): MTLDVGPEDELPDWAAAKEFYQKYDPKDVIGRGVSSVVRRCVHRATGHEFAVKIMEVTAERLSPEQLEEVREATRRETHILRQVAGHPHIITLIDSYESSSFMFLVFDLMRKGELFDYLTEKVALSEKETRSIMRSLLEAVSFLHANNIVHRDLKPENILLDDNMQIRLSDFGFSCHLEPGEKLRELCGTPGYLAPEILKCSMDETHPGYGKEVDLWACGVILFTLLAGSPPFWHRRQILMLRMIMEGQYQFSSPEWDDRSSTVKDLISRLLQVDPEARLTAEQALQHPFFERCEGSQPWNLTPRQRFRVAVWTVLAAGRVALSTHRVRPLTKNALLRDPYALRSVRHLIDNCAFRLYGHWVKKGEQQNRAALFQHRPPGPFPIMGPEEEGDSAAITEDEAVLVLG
Sequence of Serine/threonine-protein kinase pim-1 (P11309 whole entry): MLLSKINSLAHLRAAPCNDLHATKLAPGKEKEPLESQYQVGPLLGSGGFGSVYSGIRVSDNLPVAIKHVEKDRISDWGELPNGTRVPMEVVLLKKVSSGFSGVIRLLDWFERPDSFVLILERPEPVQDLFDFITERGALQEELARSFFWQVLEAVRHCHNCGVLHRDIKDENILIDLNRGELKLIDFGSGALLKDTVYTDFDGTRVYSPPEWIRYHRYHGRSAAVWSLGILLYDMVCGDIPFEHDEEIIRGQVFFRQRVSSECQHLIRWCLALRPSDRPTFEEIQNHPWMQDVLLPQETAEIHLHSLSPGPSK

Structure (SMILES): CCCCCCCCCCC[N+](C)(C)CC/C=C1/c2ccccc2Sc2ccc(Cl)cc21
- CC50 [1]: 25.4 µM (active)
- IC50 (Bcl-2-related protein A1): 8.26 µM (active)
- IC50 [2]: 4.77 µM (active)
- AC50 [3]: 6.77 µM (active)
- IC50 [4]: 25.9 µM (inactive)

Structure (SMILES): CCn1c(-c2nonc2N)nc2cncc(C(=O)N3CCC(N)C3)c21 (stereo unspecified)
- Ki [5]: 0.1 µM (active)
- Ki [6]: 0.02 µM (active)
- Ki [7]: 0.0316 µM (active)

Structure (SMILES): Cc1[nH]nc2ccc(-c3cncc(OCC(N)Cc4c[nH]c5ccccc45)c3)cc12 (stereo unspecified)
- Ki [8]: 0.251 µM (active)
- Ki [9]: 1 µM (active)
- Ki [10]: 0.0126 µM (active)
- Ki [11]: > 1.58 µM (inactive)
- Ki [12]: 0.126 µM (active)
- Ki [13]: 0.501 µM (active)
- Ki [14]: > 1.58 µM (inactive)
- Ki [15]: > 1.58 µM (inactive)
- Ki [16]: 0.501 µM (active)
- Ki [17]: 0.0794 µM (active)
- Ki [18]: > 2 µM (inactive)
- Ki (Ephrin type-A receptor 2): > 3.16 µM (inactive)
- Ki [19]: 0.316 µM (active)
- Ki (Misshapen-like kinase 1): 0.02 µM (active)
- Ki [20]: 0.794 µM (active)
- Ki [21]: > 1.58 µM (inactive)
- Ki [22]: > 10 µM (inactive)
- Ki [23]: > 3.98 µM (inactive)
- Ki [24]: 1 µM (active)
- Ki [25]: 3.98 µM (active)

Structure (SMILES): COC(=O)c1ccccc1NC1=C/C(=N\S(=O)(=O)c2cccs2)c2ccccc2C1=O
- EC50 (H4): 1.89 µM (active)
- EC50 [26]: 8.19 µM (active)
- IC50 (Hexokinase HKDC1): 27.5 µM (inactive)

Reference: ChEMBL document CHEMBL1201862, “PubChem BioAssay data set” (2004)
